Data: patent US10251396B2, “Amide compound and use of same for noxious arthropod control” (SUMITOMO CHEMICAL COMPANY, LIMITED, priority 2014, dated 2019)

Assays:
Format in all cases: in vivo
[1] = system: Blattella germanica; assay: Test Example 1: spray knockdown test on Blattella germanica; settings: 0.25 h; 2.0% w/v in isopropyl alcohol/kerosine=1/9, 1.5 mL sprayed, ten Blattella germanica, within 15 minutes; read-out: knockdown ratio of test vermin within 15 minutes
Experimental: A formulation containing each of the compounds (1), (3), (4), (5), (8), (11), (12) and (21) prepared in accordance with Formulation Example 7 was diluted with an isopropyl alcohol/kerosine=1/9 mixed liquid so that the concentration of each compound became 2.0% w/v, to obtain a diluted solution. Ten vermin Blattella germanica (male female each five vermin) were allowed to release in a container for a test in which a butter was applied on an inner wall (diameter 8.75 cm, height 7.5 cm, bottom face covered with 16 mesh wire net), and the container was arranged on a bottom of a chamber for a test (bottom surface: 46 cm×46 cm, height: 70 cm). From a height of 60 cm from an upper surface of the container, 1.5 mL of the diluted solution was sprayed using a spray gun (spraying pressure 0.42 kg/cm^2). Thirty seconds after spraying, the container was taken out from the chamber for a test, the number of vermin which had been knocked down was counted for 15 minutes with time, and a knockdown ratio was obtained. The knockdown ratio was calculated by the following expression. Knockdown ratio (%)=(number of knocked down vermin/number of test vermin)×100 As a result, the knockdown ratio of test vermin within 15 minutes was 80% or more, in treatment with the compounds (1), (3), (4), (5), (8), (11), (12) and (21), respectively.

[2] = system: Aphis gossypii; assay: Test Example 5: foliar spray test on Aphis gossypii on cucumber; settings: 500 ppm diluted solution, 20 mL/cup sprayed to cucumber, six days after spraying
Experimental: A formulation containing the compound (4) prepared in accordance with Formulation Example 15 was diluted with water so that the concentration became 500 ppm to obtain a diluted solution. On the other hand, a cucumber was planted in a polyethylene cup, and grown until a first true leaf developed. About 20 vermin of Aphis gossypii was parasitized therein. After one day, the diluted solution was sprayed to the cucumber at a ratio of 20 mL/cup. Six days after spraying, the number of live or dead vermin of Aphis gossypii was investigated, and a controlling value was obtained by the following expression. Controlling value (%)={1−(Cb×Tai)/(Cai×Tb)}×100 In addition, letters in the expression indicate the following meanings.

[3] = system: Plutella xylostella; assay: Test Example 6: cabbage foliar spray test on second instar larvae of Plutella xylostella; settings: 500 ppm diluted solution, 20 mL/cup sprayed to cabbage, 25° C., after 5 days
Experimental: A formulation containing the compound (21) prepared in accordance with Formulation Example 15 was diluted with water so that the concentration became 500 ppm, to prepare a diluted solution. On the other hand, the diluted solution was sprayed to a cabbage at a stage of three leaves planted in a polyethylene cup at a ratio of 20 mL/cup. After spraying, the plant was air-dried, foliage portions were cut and accommodated into a 50 mL cup, 5 second instar larvae of Plutella xylostella were released, and the cup was covered. This was stored at 25° C., and after 5 days, the number of dead vermin was counted, and a dead vermin ratio was obtained by the following expression.

Row | Compound | pest or weed control at 2 % strength [1] [%] | controlling value [2] [%] | dead vermin ratio [3] [%]
1 | CC(C)CNC(=O)c1cc(COCc2ccccc2)on1 [compound (1)] | ≥ 80 | – | –
2 | C=C(C)CNC(=O)c1cc(COCc2ccccc2)on1 [compound (3)] | ≥ 80 | – | –
3 | COC(C)CNC(=O)c1cc(COCc2ccccc2)on1 (stereo not shown) [compound (4)] | ≥ 80 | ≥ 90 | –
4 | COCCNC(=O)c1cc(COCc2ccccc2)on1 [compound (5)] | ≥ 80 | – | –
5 | COC(C)(C)CNC(=O)c1cc(COCc2ccccc2)on1 [compound (8)] | ≥ 80 | – | –
6 | COC(CNC(=O)c1cc(COCc2ccccc2)on1)OC [compound (11)] | ≥ 80 | – | –
7 | COCC(COC)NC(=O)c1cc(COCc2ccccc2)on1 [compound (12)] | ≥ 80 | – | –
8 | COC(C)CNC(=O)c1cc(COCc2ccc3ccccc3c2)on1 (stereo not shown) [compound (21)] | ≥ 80 | – | ≥ 80
